Results published in patent US8609173B2, “Compositions comprising sweetness enhancers and methods of making them” (Senomyx Inc., priority 2008, dated 2013).

How the values were obtained:
Panelists = assay: Paired comparison taste test, cola composition; format: in vivo, Human; conditions: for Sweetness comparison (conclusion): p>0.10; for Sample selected as sweeter by panelists, Total: vs Cola with 100% Sucrose, n = 39
Protocol: Cola compositions were prepared using the following ingredients and evaluated for sweetness and/or lingering taste.
The cola emulsion, above, contains the ingredients below:
Panelists evaluated two solutions in a paired comparison taste test procedure and were instructed to select the sweeter of the two samples.

[1] = Preparation of liquid solutions in food grade solvents (dissolution trials, Table 3); format: physicochemical; conditions: for solubility rate: propylene glycol
Protocol: Liquid compositions of 3-(4-amino-2,2-dioxide-1H-benzo[c][1,2,6]thiadiazin-5-yloxy)-2′,2′-dimethyl-N-propylpropanamide were prepared using a variety of different solvents (Table 3). It was discovered by increasing the pH of the solution with alkaline substance, such as alkali metal salt, one can increase the concentration level of 3-(4-amino-2,2-dioxide-1H-benzo[c][1,2,6]thiadiazin-5-yloxy)-2′,2′-dimethyl-N-propylpropanamide in solutions. Examples of suitable alkali metal salt include, but are not limited to, sodium bicarbonate, sodium carbonate, sodium hydroxide, and the like. In propylene glycol, sodium bicarbonate will raise pH from 7.8 to 8.5; the solubility rate of 3-(4-amino-2,2-dioxide-1H-benzo[c][1,2,6]thiadiazin-5-yloxy)-2′,2′-dimethyl-N-propylpropanamide will be increased from 0.5% to 1.0%.
• 1. Weigh a desired amount of compound and sodium bicarbonate. • 2. Calculate the volume of food grade solvent(s) (water, ethyl alcohol, isopropyl alcohol, butylenes glycol, propylene glycol, triacetin, glycerol, vegetable oils (soy, corn, peanut, persic, cottonseed, sesame), olive oil, fractionated coconut oil, neobee, tributyrin, mono and diglycerides, ethyl lactate, ethyl levulinate, butyl stearate, triethyl citrate, diethyl succinate, diethyl malonate, acetic acid, lactic acid, phosphoric acid, benzyl alcohol, tetrahydrofurfural alcohol, D-limonene, γ-valerolactone, butyrolactone, polyethylene glycol sorbitan monostearate (Tween®), etc. to add to the dry, weighed out compound to make a concentration of 1,000-50,000 ppm (0.1-5%). • 3. Pre heat the appropriate amount of solvent to 100 to 200° F. while stirring at 1,100 rpm on a hot plate using a stir bar. • 4. Add pre-weighed compound to heated solvent (when temperature reaches 100 to 200° F.). • 5. Continue heating solvent and inspect to insure complete dissolution, return to the hot plate if necessary. Preparation Procedure for Water as a Solvent:
Preparation Procedure of the Liquid Diluted Form (without Heat): • 1. Weigh desire amount of compound. • 2. Calculate the volume of food grade solvent(s) (water, ethanol, propylene glycol, triacetin, glycerol, neobee, DI water, phosphoric acid, lactic acid, olive oil) to add to the dry, weighed out compound to make a concentration of 1,000-50,000 ppm (0.1-5%). • 3. Stir solvent at 1,100 rpm on a hot plate using a stir bar. • 4. Add pre-weighed compound to solvent. • 5. Continue stirring and inspect to insure complete dissolution, return to the hot plate if necessary.

External panelists = assay: Line scale (15-point sucrose equivalence) sensory test, Example 3A/3C, sucrose or LSB, pH 7.1; format: in vivo, Human; parameters: key to Average Sweetness / Average Bitterness: 15-point scale: 0 = 0% sucrose to 15 = 15% sucrose; references = 5
Protocol: Several types of sensory tests were used to determine the efficacy of 5-(neopentyloxy)-1H-benzo[c][1,2,6]thiadiazin-4-amino-2,2-dioxide in enhancing sweetness of sucrose. Two types of tests were conducted: • 1) Sensory scaling tests were performed using a 15-point percent sucrose equivalence scale for sweetness in order to evaluate sweetness enhancement 5-(neopentyloxy)-1H-benzo[c][1,2,6]thiadiazin-4-amino-2,2-dioxide in sucrose, or in fructose. • 2) Paired comparison tests (2-alternative forced choice difference tests) were used to determine sweetness equivalence for solutions of sucrose vs. 5-(neopentyloxy)-1H-benzo[c][1,2,6]thiadiazin-4-amino-2,2-dioxide or buffer vs. 5-(neopentyloxy)-1H-benzo[c][1,2,6]thiadiazin-4-amino-2,2-dioxide. Stimuli:
Tests were performed with sucrose or fructose. Sweetener was evaluated with and/or without 5-(neopentyloxy)-1H-benzo[c][1,2,6]thiadiazin-4-amino-2,2-dioxide at the appropriate concentration(s).
5-(Neopentyloxy)-1H-benzo[c][1,2,6]thiadiazin-4-amino-2,2-dioxide was prepared as a concentrated stock solution in ethanol to ensure dissolution of the compound. Therefore, all taste solutions contained 0.1% ethanol final concentration. Samples without compound also contained 0.1% ethanol. Low sodium phosphate buffer consists of 0.3 mM KCl, 0.5 mM Na2HPO4, and 0.175 mM KH2PO4.
In scaling test situations, the samples were rated on a 15-point scale for sweetness, ranging from 0=0% sucrose to 15=15% sucrose. To evaluate attributes other than sweetness, references are used for training and are prepared according to the table below. Note that each reference was given a score of 5 on the 15-point scale.
External panelists were used for the tests. The exact number of panelists is reported with test results. Subjects were instructed not to eat or drink anything (except water) for at least 1 hour prior to the test.
Panelists rinsed their mouths with water prior to starting any test. Samples were presented to panelists in a randomized, counterbalanced order. Panelists rinsed with water and had up to a 1 minute delay to clear the mouth of any tastes after each evaluation. Two replicates of each test were performed, unless otherwise noted.

CCCNC(=O)C(C)(C)COc1cccc2c1C(N)=NS(=O)(=O)N2 [3-(4-amino-2,2-dioxide-1H-benzo[c][1,2,6]thiadiazin-5-yloxy)-2′,2′-dimethyl-N-propylpropanamide]
Sweetness comparison (conclusion) (Panelists; 60% sucrose cola + 3 ppm (8.47 μM) compound vs 100% sucrose cola): no significant difference in sweetness | Sweetness comparison (conclusion) (Panelists; 66% sucrose cola + 3.19 ppm (8.47 μM) compound vs 100% sucrose cola): no significant difference in sweetness | Sample selected as sweeter by panelists, Total (Panelists; Cola with 60% Sucrose + 3 ppm (8.47 μM) compound chosen): 18 | Sample selected as sweeter by panelists, Total (Panelists; Cola with 66% Sucrose + 3.19 ppm (8.47 μM) compound chosen): 22 | Sweetness comparison (statement) (Panelists; cola with reduced sucrose + 3 ppm or 3.19 ppm compound vs 100% sucrose cola): approximately the same sweetness | Results (dissolution) ([1]; Ethanol, 1.0%, Ambient/over 30 minutes): Did not go into solution | Results (dissolution) ([1]; Glycerol, 0.1%, Ambient/over 30 minutes): Did not go into solution | Results (dissolution) ([1]; Lactic Acid, 1.0%, Ambient/over 30 minutes): Did not go into solution | Results (dissolution) ([1]; Neobee, 0.1%, 185° F./over 30 minutes): Did not go into solution | Results (dissolution) ([1]; Neobee, 0.1%, Ambient/over 30 minutes): Did not go into solution | Results (dissolution) ([1]; Olive Oil (Star Original), 0.1%, 150° F./over 30 minutes): Did not go into solution | Results (dissolution) ([1]; Olive Oil (Star Original), 0.1%, Ambient/over 30 minutes): Did not go into solution | Results (dissolution) ([1]; Phosphoric acid, 0.1%, Ambient/over 30 minutes): Did not go into solution | Results (dissolution) ([1]; Propylene Glycol, 0.3%, Ambient/over 30 minutes): Did not go into solution | Results (dissolution) ([1]; Propylene Glycol, 0.5%, Ambient/over 30 minutes): Did not go into solution | Results (dissolution) ([1]; Propylene Glycol, 1.0%, Ambient/over 30 minutes): Did not go into solution | Results (dissolution) ([1]; Triacetin, 0.1%, Ambient/over 30 minutes): Did not go into solution | concentration obtained ([1]; in ethanol): about 0.1 wt. % | concentration readily obtained ([1]; in propylene glycol): ≤ 0.5% | concentration obtained ([1]; in water): 10 ppm | solubility rate ([1]; pH 7.8, before sodium bicarbonate): 0.5% | solubility rate ([1]; sodium bicarbonate raises pH to 8.5): 1.0%

OC[C@H]1O[C@@](CO)(O[C@H]2O[C@H](CO)[C@@H](O)[C@H](O)[C@H]2O)[C@@H](O)[C@@H]1O [Sucrose, sucrose]
Average Sweetness (External panelists; 2% Sucrose, Table 10, n = 14): 2.1 | Average Bitterness (External panelists; 2% Sucrose, Table 12, n = 14): 0.1 | Average Sweetness (External panelists; 4% Sucrose, Table 10, n = 14): 3.8 | Average Bitterness (External panelists; 4% Sucrose, Table 12, n = 14): 0.0 | Average Sweetness (External panelists; 6% Sucrose, Table 10, n = 14): 6.0 | Average Sweetness (External panelists; 6% Sucrose, Table 11, n = 14): 7.3 | Average Bitterness (External panelists; 6% Sucrose, Table 12, n = 14): 0.4 | Average Bitterness (External panelists; 6% Sucrose, Table 13, n = 14): 0.4 | Average Bitterness (External panelists; 6% Sucrose, pH 7.1, n = 32): 0.3 | Average Sweetness (External panelists; 6% Sucrose, pH 7.1, n = 32): 6.5 | Average Sweetness (External panelists; 8% Sucrose, Table 11, n = 14): 8.6 | Average Bitterness (External panelists; 8% Sucrose, Table 13, n = 14): 0.4 | Average Bitterness (External panelists; 8% Sucrose, pH 7.1, n = 32): 0.3 | Average Sweetness (External panelists; 8% Sucrose, pH 7.1, n = 32): 7.9 | Average Sweetness (External panelists; 9% Sucrose, Table 11, n = 14): 9.4 | Average Bitterness (External panelists; 9% Sucrose, Table 13, n = 14): 0.6 | Average Bitterness (External panelists; 9% Sucrose, pH 7.1, n = 32): 0.2 | Average Sweetness (External panelists; 9% Sucrose, pH 7.1, n = 32): 8.9 | Average Sweetness (External panelists; 10% Sucrose, Table 11, n = 14): 9.6 | Average Bitterness (External panelists; 10% Sucrose, Table 13, n = 14): 0.2 | Average Bitterness (External panelists; 10% Sucrose, pH 7.1, n = 32): 0.3 | Average Sweetness (External panelists; 10% Sucrose, pH 7.1, n = 32): 9.3
